The values below come from patent publication US9233067B2, “Silk particles for controlled and sustained delivery of compounds” (Amsilk GmbH, priority 2009, dated 2016).

The nature of data set [1]: Properties of small molecular weight model drugs (Table 1). In kind it is physicochemical. Particulars: for Predominant charge at pH7: pH 7, aqueous media. As to the method: All drugs were dissolved in water at a concentration of 0.21 μmol/ml. Drug substances and their featured properties are depicted in Table 1. The main selection criteria were solubility in aqueous media (expressed by the octanol/water partition coefficient (log P)), the acidic dissociation constant (pKa for protonated bases (BH+) or for acids (HA)) and the resulting net-charge in aqueous media (predominant or permanent charge).

Data set [2] is described as follows: Calculated apparent distribution coefficient (log D). Particulars: pH 7; calculated from log P and pKa. From the text:
Further, the distribution between a hydrophobic and a hydrophilic phase of two different species of a specific drug, i.e. the native and the protonated form, can be described by its apparent distribution coefficient (log D), which can be calculated with equations (3) and (4) respectively. for acids: log D=log P−log(1+10^pH-pKa) (3) for bases: log D=log P−log(1+10^pKa-pH) (4)

The conditions of data set [3]: cited from earlier work; for log P: octanol/water, individual unprotonated forms; for Dissociation constant of BH^+(pKa): protonated base.
Data set [4] in a line: In vitro release from drug loaded eADF4(C16) particles. In kind it is physicochemical. Particulars: power law fit. The protocol:
Drug loaded eADF4(C16) particles were washed with distilled water and suspended in 1 ml PBS (pH 7.4) before incubation at 37° C. with constant shaking. Each vial contained 2 mg of drug loaded particles containing […] spider silk protein. The solvent was periodically removed from each sample and replaced with fresh PBS (pH 7.4). The drug content in the medium was then analyzed using UV-Vis-spectrometry. The percentage of cumulative model drug release (% w/w) was investigated as a function of incubation time. Each experiment was performed in triplicate. To study the effect of different pH values on the release behaviour of drug loaded eADF4(C16) particles, 1 mg drug loaded silk particles were incubated in 1.0 ml PBS at 5 different pH values (pH 2, 4, 6, 7.4 and 8.8) for 5 days. The solvent was withdrawn daily and the particles were redispersed in fresh media. Supernatants of drawn samples were analyzed for drug content determination with UV-Vis-spectrometry.
[formula] where Mt/M∞ is the fractional amount of the drug released at time t, k is a characteristic constant of the system, and exponent n is related to the geometrical shape of the formulation and is indicative of the mechanism of drug release. The semi-empirical power law can be seen as a generalization of two independent mechanisms of drug transport, Fickian diffusion and Case II transport, reflecting the influence of polymer relaxation on molecules' movement in the matrix. For spherical systems the limiting value of n, when pure Fickian diffusion or pure Case II transport is operating, were determined to be equal to 0.43 and 0.85, respectively. When n is between 0.43 and 0.85, a superposition of both transport processes occurs which is known as anomalous transport. In order to obtain a linear fit for the drug release data, equation (5) was modified leading to equation (6),
[formula] where n can be calculated from the slope of the log-log plot of release Mt/M∞ versus time t by linear fitting (FIG. 4d). Therefrom, three time intervals with different dominating release mechanisms could be identified excluding the initial burst region (<24 h). To distinguish between different time intervals, the criterion that the coefficient r2 had to be above 0.99 for the individual linear fits was employed. For validation of the determined release parameters, the experimental release data were compared with theoretical data obtained by the semi-empirical power law employing the determined values for k and n. A very good agreement from post-initial burst stage (>24 hours) up to 100% release was obtained (FIG. 4 a). Since only release data after 24 hours were considered for calculation of release parameters (k and n), the initial burst is underestimated by theoretical data (FIG. 4 b).

For data set [5] the following is noted: pH of 7.0; cited from earlier work.
The nature of data set [6]: Particle size of lysozyme loaded C16 spider silk particles (dynamic light scattering). The note with it: particles loaded with approximately 10% [w/w] lysozyme. In kind it is physicochemical. As to the method: The loading procedure as applied in example 6 was modulated and implemented as follows: A stock dispersion of spider silk particles was centrifuged and redispersed in the desired buffer media before loading. A second stock solution comprising lysozyme was prepared by dissolving lyophilized lysozyme in an identical buffer solution. […] After 30 minutes of incubation at room temperature under gentle agitation, 20 μl of the resulting particle suspension were used for dynamic light scattering measurements. Simultaneously, samples were centrifuged and the supernatant was analyzed for residual protein content using the Micro BCA Protein Assay Kit (Thermo Scientific). Encapsulation efficiencies and loading were determined according to example 6 by using equation (1) and (2), respectively.

A further data set in a line: Zeta potential analysis. The note with it: lysozyme loading up to 30%; pH 7.0/30 mM. The format is physicochemical. As to the method: In order to elucidate and characterize the loading mechanism of eADF4(C16) particles with model drugs, zeta potential measurements were conducted as a function of amount of model drug added. The zeta potential was determined using a Nanoseries Malvern Zetasizer (Malvern, Worcestershire, UK). Automatic titration was conducted with a Malvern Multipurpose Titrator MPT-2. Experiments were performed in distilled water (pH 7) at 25° C. Each measurement was performed in triplicate.

“Also recorded” adds a separate entry of the source. Where a name gives a salt, the structure may show the parent alone.

Consider `CN[C@@H](C)[C@H](O)c1ccccc1` [Ephedrine*HCl, Ephedrine], for which, in data set [1], the Permanently charged entry is recorded as “no” and the “Predominant charge at pH7” value is given as “positive”. For the same compound, the “log D” value in data set [2] is given as −1.321. Moreover, the log partition coefficient (log P) in data set [3] is 1.30.
`CCOc1ccc2nc3cc(N)ccc3c(N)c2c1` [Ethacridine lactate]: the Permanently charged entry in data set [1] is reported as “no”. Besides, in data set [1], the “Predominant charge at pH7” value is reported as “positive”. Besides, in data set [2], the “log D” value is 2.899. Besides, in data set [3], the “log P” value is 2.50. Also, the “Dissociation constant of BH^+(pKa)” value in data set [3] was 11.00. Besides, the entries for the “k (characteristic constant)” value in data set [4] (time 0-13 d), in data set [4] (time 14-20 d) and in data set [4] (time >20 d) were 1.25, 3.18 and 14.4, respectively. Also, the “n (release exponent)” value came out at 00.6754 in data set [4] (time 0-13 d); 0.6754 in data set [4] (time 0-13 d, listed as ethacridine lactate); 0.5083 in data set [4] (time 14-20 d); 0.51 in data set [4] (time 14-20 d, listed as ethacridine lactate); 0.2641 in data set [4] (time >20 d).
On to `COc1ccc(Cc2nccc3cc(OC)c(OC)cc23)cc1OC` [Papaverine*HCl, Papaverine], for which, in data set [1], the Permanently charged entry is “no” and the “Predominant charge at pH7” value was “positive”. Also, the “log D” value in data set [2] was 2.395. Also, in data set [3], the “log P” value was 3.50 and the “Dissociation constant of BH^+(pKa)” value was 8.07.
For the compound `O=S1(=O)OC(c2ccc(O)cc2)(c2ccc(O)cc2)c2ccccc21` [Phenol red], in data set [3], the “log P” value was 3.00.
On to `CCN(CC)CCOC(=O)c1ccc(N)cc1` [Procaine*HCl, Procaine], for which, in data set [1], the Permanently charged entry is “no” and the “Predominant charge at pH7” value is “positive”. Besides, in data set [2], the “log D” value is reported as 0.396. In data set [3], the “log P” value was 2.40 and the “Dissociation constant of BH^+(pKa)” value was 8.05.
For `CC(C)NCC(O)COc1cccc2ccccc12` (stereo not drawn) [Propranolol*HCl, Propranolol], in data set [1], the Permanently charged result is on record as “no” and the “Predominant charge at pH7” value was “positive”.
With `CCCCNc1ccc(C(=O)OCCN(C)C)cc1` [Tetracaine*HCl, Tetracaine], in data set [1], the Permanently charged result was “no” and the “Predominant charge at pH7” value is reported as “positive”. Besides, the “log D” value in data set [2] is 2.773. Besides, the “log P” value in data set [3] was 4.00.
Take “Lysozyme: protein compound with an isoelectric point of 11.35 and a molecular weight of 14.3 kDa”: in data set [5], the net charge result is “positive”. Besides, in data set [6], the “particle size compared to unloaded spider silk particles” value is “no increase in size; also recorded: did not differ”. The “change in the zeta-potential of particles” value in “Zeta potential analysis” is “did not show a significant change”.
Regarding Methyl violet, in data set [1], the Permanently charged result is on record as “yes”. Also, the “Predominant charge at pH7” value in data set [1] was “positive”. Moreover, the “log P” value in data set [3] is 3.20. Besides, the “k (characteristic constant)” value is on record as 1.17 in data set [4] (time 0-13 d), 1.92 in data set [4] (time 14-20 d) and 9.20 in data set [4] (time >20 d). The “n (release exponent)” value in data set [4] (time 0-13 d) turned out to be 0.692; in data set [4] (time 14-20 d) it was 0.6079; in data set [4] (time 14-20 d, listed as methyl violet), 0.61; in data set [4] (time >20 d), 0.3537.
Take “Nerve growth factor: protein with an isoelectric point of 9.5 and a molecular weight of 13 kDa”: in data set [5], the net charge entry is on record as “positively charged”.

In general, log D refers to lipophilicity at a set pH, counting ionised and neutral species. In general, log P refers to a log measure of how a compound divides between an organic and an aqueous phase.
